The structures appear in SMILES notation. Activity calls are given as the source filed them. The rule behind the calls is not given here.

As usually defined, the Ki is a dissociation constant, usually derived from enzyme kinetics or from competition with a known ligand. High values mean weaker binding, low ones tighter binding. In general, Kd refers to the constant that tells how readily two partners part at equilibrium. Low readings indicate higher affinity, high ones lower affinity.

A short description of assay [1]: Binding affinity to HSP90 ATPase domain assessed as broadening of compound signals using [13C]labeled compound at 20 uM by NMR spectroscopy.
Assay [2] is described as follows: Binding affinity HSP90 ATPase domain at 100 uM by STD competition spectroscopy.
The nature of assay [3]: Binding affinity to HSP90 ATPase domain by TR-FRET assay. (In general: TR-FRET usually uses a lanthanide donor and a delayed reading to cut background.)
Assay [4] in a line: Binding affinity HSP90 ATPase domain assessed as broadening of compound signals using [13C]labeled compound at 200 uM by NMR spectroscopy.
Assay [5] can be described thus: Binding affinity bovine carbonic anhydrase. Also on record: species or system Bos taurus.
For assay [6], the species on record is Bos taurus. Description: Binding affinity bovine carbonic anhydrase assessed as broadening of compound signals using [13C]labeled compound at 20 uM by NMR spectroscopy.
Assay [7] can be described thus: Binding affinity bovine carbonic anhydrase by surface plasma resonance method. Details: species or system Bos taurus.

On to `COc1ccc(Cl)cc1-c1cc(C)nc(N)n1`, for which the Activity entry in assay [1] is “Dose-dependent effect”. For the same molecule, the outcome in assay [2] was Active. In assay [3], the affinity, expressed as Ki, was 11 µM.
For the molecule `Cc1cc(-c2ccccc2)nc(N)n1`, affinity in assay [3] was put at a Ki of 14 µM.
As to `Cc1cc(-c2cccc3ccccc23)nc(N)n1`, the outcome in assay [4] was Active. In assay [3], this molecule yielded a Ki of 5 µM.
`CCN1CCCC1CNC(=O)c1cc(S(N)(=O)=O)ccc1OC` (centres undefined) [SULPIRIDE]: the Ki in assay [5] was found to be 48 µM.
With `NS(=O)(=O)c1ccc(F)cc1`, the result in assay [6] was Active. In addition, in assay [7], the affinity, expressed as Kd, was 1 µM.

The values above are taken from ChEMBL document CHEMBL2157881, “Labeled Ligand Displacement: Extending NMR-Based Screening of Protein Targets” (ACS Med Chem Lett, 2010).
